From the NIST ThermoML archive (doi:10.1021/acs.jced.9b00046)
Numbers after ± are expanded uncertainties.

Settings: 99.6 kPa, Liquid; for viscosity: Capillary tube (Ostwald / Ubbelohde) method; for mass density: Vibrating tube method

CNC(C)=O [N-methylacetamide]
Settings	mass density [kg/m3]	viscosity [mPa·s]
308.15 K	945.71 ± 1.9	3.488 ± 0.043
313.15 K	941.53 ± 1.9	3.073 ± 0.038
318.15 K	937.33 ± 1.9	2.723 ± 0.034
323.15 K	933.16 ± 1.9	2.438 ± 0.03
328.15 K	928.93 ± 1.9	2.194 ± 0.027
